Results on nine compounds are retold here after US12077555B2, “STAT degraders and uses thereof” (Kymera Therapeutics, Inc., priority 2019, dated 2024).

SMILES strings stand for the structures.

For the first assay, the target named is STAT3 (Homo sapiens, UniProt P40763). The experiment in a line: STAT3 HiBiT degradation assay in transfected A549 cells. The format is cell-based. Conditions: A549, 24 h; read-out: STAT3 HiBiT A549 degradation 24 h: Average external-Abs DC50. The arrangement: expressed in transfected cells; host or cells: A549. How it is done: Compound preparation and Cell seeding: The transfected A549 cells were harvested from dish into cell culture medium and cell numbers counted. Cells were diluted with culture medium to the desired density and 30 μL of cell suspension (about 2000 cells/well) were added into each well of a 384-well cell culture plate as designated and transferred into 37° C. 5% CO2 incubator for 24 h. Compounds were dissolved to 10 mM stock solution and 12 μL of the stock solution was transferred to a 384 LDV-plate. 3 fold, 10-point dilution was performed by transferring 4 μL compound into 8 μL DMSO using a TECAN (EVO200) liquid handler. 30 μL of diluted compound from compound source plate was transferred into the cell plate as designated by using Echo550 and transferred into 37° C. 5% CO2 incubator for 24 h.
Chain of STAT3 (P40763 whole entry): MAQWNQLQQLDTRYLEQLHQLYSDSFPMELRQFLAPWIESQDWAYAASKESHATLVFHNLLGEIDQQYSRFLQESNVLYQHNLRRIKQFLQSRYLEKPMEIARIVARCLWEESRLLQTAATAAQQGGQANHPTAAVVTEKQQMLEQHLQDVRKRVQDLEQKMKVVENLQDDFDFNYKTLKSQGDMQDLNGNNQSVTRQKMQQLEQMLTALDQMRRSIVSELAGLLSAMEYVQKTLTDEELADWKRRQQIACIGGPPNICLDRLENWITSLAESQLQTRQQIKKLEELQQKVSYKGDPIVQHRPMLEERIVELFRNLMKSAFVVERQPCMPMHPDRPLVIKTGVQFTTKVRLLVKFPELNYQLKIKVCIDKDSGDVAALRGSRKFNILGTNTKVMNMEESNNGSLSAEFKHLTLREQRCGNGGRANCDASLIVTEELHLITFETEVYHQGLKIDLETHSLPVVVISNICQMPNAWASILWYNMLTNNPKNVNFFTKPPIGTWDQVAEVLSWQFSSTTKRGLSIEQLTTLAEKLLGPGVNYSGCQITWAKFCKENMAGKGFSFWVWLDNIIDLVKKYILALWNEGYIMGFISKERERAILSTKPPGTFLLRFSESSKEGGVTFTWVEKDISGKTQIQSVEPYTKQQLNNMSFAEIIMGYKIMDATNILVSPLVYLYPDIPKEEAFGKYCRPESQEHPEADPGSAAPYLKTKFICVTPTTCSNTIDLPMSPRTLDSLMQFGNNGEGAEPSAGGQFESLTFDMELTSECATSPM
Detection: Plates were removed from incubators and equilibrated at room temperature for 15 minutes. Nano-Glo Hibit Lytic Detection reagent (Promega Cat #N3040) was thawed and equilibrated to room temperature before the experiment. 30 μL of Nano-Glo Hibit Lytic Detection reagent was added into each well to be detected. The plates were held at room temperature for 10 min followed by reading on EnSpire.
Data analysis: The remaining activity was calculated following the formula: Remaining Activity (%)=100%×(Lumsample−LumNC)/(LumPC−LumNC). Calculate the IC50 by fitting the curve using Xlfit (v5.3.1.3), equation 201: fit=(A+((B−A)/(1+((x/C)^D)))); A: Bottom; B: Top; C: IC50; and D: Slope.
The letter codes for STAT3 DC50 include: A (<0.01 μM), B (0.01-0.1 μM), C (0.1-1.0 μM), and D (>1.0 μM).
As to `Cc1ncsc1-c1ccc(CNC(=O)[C@@H]2C[C@@H](O)CN2C(=O)[C@@H](NC(=O)CCC2CCN(c3ccc(CO[C@H](C)[C@H](CCC(N)=O)NC(=O)[C@@H]4Cc5cccc6c5N4C(=O)[C@@H](NC(=O)c4cc5cc(C(=O)P(=O)(O)O)ccc5[nH]4)CC6)cc3)CC2)C(C)(C)C)cc1` [Compound I-160, diammonium 2-[[(2S,11S)-2-[[(3S,4R)-1-carbamoyl-4-([4-[4-(2-[[(2S)-1-[(2S,4R)-4-hydroxy-2-([[4-(4-methyl-1,3-thiazol-5-yl)phenyl]methyl]carbamoyl)pyrrolidin-1-yl]-3,3-dimethyl-1-oxobutan-2-yl]carbamoyl]ethyl)piperidin-1-yl]phenyl]methoxy)pentan-3-yl]carbamoyl]-12-oxo-1-azatricyclo[6.4.1.0^4,13]]trideca-4(13),5,7-trien-11-yl]carbamoyl]-1H-indole-5-carbonylpho sphonate], the DC50 (as a rule, the concentration giving 50% degradation) was greater than 1000 nM.

Turning to `Cc1ncsc1-c1ccc(CNC(=O)[C@@H]2C[C@@H](O)CN2C(=O)[C@@H](NC(=O)CCCCCc2cccc(CNC(=O)[C@H](CCC(N)=O)NC(=O)[C@@H]3Cc4cccc5c4N3C(=O)[C@@H](NC(=O)c3cc4cc(C(=O)P(=O)(O)O)ccc4[nH]3)CC5)c2)C(C)(C)C)cc1` [Compound I-222, 2-[[(2S,11S)-2-[[(1S)-3-carbamoyl-1--([[3-(5-[[(2S)-1-[(2S,4R)-4-hydroxy-2-([[4-(4-methyl-1,3-thiazol-5-yl)phenyl]methyl]carbamoyl)pyrrolidin-1-yl]-3,3-dimethyl-1-oxobutan-2-yl]carbamoyl]pentyl)phenyl]methyl]carbamoyl)propyl]carbamoyl]-12-oxo-1-azatricyclo[6.4.1.0^[4,13]]trideca-4(13),5,7-trien-11-yl]carbamoyl]-1H-indole-5-carbonylphosphonic acid], the DC50 is greater than 1000 nM.

Take `Cc1ncsc1-c1ccc([C@H](C)NC(=O)[C@@H]2C[C@@H](O)CN2C(=O)[C@@H](NC(=O)CCCCc2ccc(CCC[C@H](CCC(N)=O)NC(=O)[C@@H]3Cc4cccc5c4N3C(=O)[C@@H](NC(=O)c3cc4cc(C(=O)P(=O)(O)O)ccc4[nH]3)CC5)cc2)C(C)(C)C)cc1` [Compound I-237, diammonium 2-[[(2S,11S)-2-[[(3R)-1-carbamoyl-6-[4-(4-[[(2S)-1-[(2S,4R)-4-hydroxy-2-[[(1S)-1-[4-(4-methyl-1,3-thiazol-5-yl)phenyl]ethyl]carbamoyl]pyrrolidin-1-yl]-3,3-dimethyl-1-oxobutan-2-yl]carbamoyl]butyl)phenyl]hexan-3-yl]carbamoyl]-12-oxo-1-azatricyclo[6.4.1.0^[4,13]]trideca-4(13),5,7-trien-11-yl]carbamoyl]-1H-indole-5-carbonylphosphonate]: the DC50 is 10 to 100 nM.

As to `Cc1ncsc1-c1ccc([C@H](C)NC(=O)[C@@H]2C[C@@H](O)CN2C(=O)[C@@H](NC(=O)CCCCc2ccc(COC[C@H](CCC(N)=O)NC(=O)[C@@H]3Cc4cccc5c4N3C(=O)[C@@H](NC(=O)c3cc4cc(C(=O)P(=O)(O)O)ccc4[nH]3)CC5)cc2)C(C)(C)C)cc1` [Compound I-141, diammonium 2-[[(2S,11S)-2-[[(2S)-4-carbamoyl-1-[[4-(4-[[(2S)-1-[(2S,4R)-4-hydroxy-2-[[(1S)-1-[4-(4-methyl-1,3-thiazol-5-yl)phenyl]ethyl]carbamoyl]pyrrolidin-l-yl]-3,3-dimethyl-1-oxobutan-2-yl]carbamoyl]butyl)phenyl]methoxy]butan-2-yl]carbamoyl]-12-oxo-1-azatricyclo[6.4.1.0^[4,13]]trideca-4(13),5,7-trien-11-yl]carbamoyl]-1H-indole-5-carbonylphosphonate], the DC50 is 10 to 100 nM.

Take `Cc1ncsc1-c1ccc([C@H](C)NC(=O)[C@@H]2C[C@@H](O)CN2C(=O)[C@@H](NC(=O)CCCCCc2cccc(NC(=O)[C@H](CCC(N)=O)NC(=O)[C@@H]3Cc4cccc5c4N3C(=O)[C@@H](NC(=O)c3cc4cc(C(=O)P(=O)(O)O)ccc4[nH]3)CC5)c2Cl)C(C)(C)C)cc1` [Compound I-249, 2-[[(2S,11S)-2-[[(1S)-3-carbamoyl-1-[[2-chloro-3-(5-[[(2S)-1-[(2S,4R)-4-hydroxy-2-[[(1S)-1-[4-(4-methyl-1,3-thiazol-5-yl)phenyl]ethyl]carbamoyl]pyrrolidin-1-yl]-3,3-dimethyl-1-oxobutan-2-yl]carbamoyl]pentyl)phenyl]carbamoyl]propyl]carbamoyl]-12-oxo-1-azatricyclo[6.4.1.0^[4,13]]trideca-4(13),5,7-trien-11-yl]carbamoyl]-1H-indole-5-carbonylphosphonic acid]: the DC50 lay in the range of 10 to 100 nM.

`Cc1ncsc1-c1ccc(CNC(=O)[C@@H]2C[C@@H](O)CC2C(=O)[C@@H](NC(=O)CC/C=C/c2ccc(CO[C@H](C)[C@H](CCC(N)=O)NC(=O)[C@@H]3Cc4cccc5c4N3C(=O)[C@@H](NC(=O)c3cc4cc(C(=O)P(=O)(O)O)ccc4[nH]3)CC5)cc2)C(C)(C)C)cc1` (stereo partly drawn) [Compound I-130, diammonium 2-[[(2S,11S)-2-[[(3S,4R)-1-carbamoyl-4-([4-[(1E)-4-[[(2S)-1-[(2S,4R)-4-hydroxy-2-([[4-(4-methyl-1,3-thiazol-5-yl)phenyl]methyl]carbamoyl)pyrrolidin-1-yl]-3,3-dimethyl-1-oxobutan-2-yl]carbamoyl]but-1-en-1-yl]phenyl]methoxy)pentan-3-yl]carbamoyl]-12-oxo-1-azatricyclo[6.4.1.0^[4,13]]trideca-4(13),5,7-trien-11-yl]carbamoyl]-1H-indole-5-carbonylphosphonate]: the DC50 is greater than 1000 nM.

Turning to `Cn1c(=O)n(C2CCC(=O)NC2=O)c2cccc(CCCCCCCCC(=O)N3CC[C@H]4CC[C@@H](C(=O)N[C@@H](CCC(N)=O)C(=O)NC(c5ccccc5)c5ccccc5)N4C(=O)[C@@H](NC(=O)c4cc5cc(C(=O)P(=O)(O)O)ccc5[nH]4)C3)c21` (stereo partly drawn) [Compound I-125, 2-[[(5S,8S,10aR)-8-[[(1S)-3-carbamoyl-1-(diphenylmethylcarbamoyl)propyl]carbamoyl]-3-[9-[1-(2,6-dioxopiperidin-3-yl)-3-methyl-2-oxo-1,3-benzodiazol-4-yl]nonanoyl]-6-oxo-octahydropyrrolo[1,2-a][1,5]diazocin-5-yl]carbamoyl]-1H-indole-5-carbonylphosphonic acid], the DC50 was 100 to 1000 nM.

Take `Cn1c(=O)n(C2CCC(=O)NC2=O)c2ccc(C[C@H]3CC[C@H](CCC(=O)N4CC[C@H]5CC[C@@H](C(=O)N[C@@H](CCC(N)=O)C(=O)NC(c6ccccc6)c6ccccc6)N5C(=O)[C@@H](NC(=O)c5cc6cc(C(=O)P(=O)(O)O)ccc6[nH]5)C4)CC3)cc21` (stereo partly drawn) [Compound I-167]: the DC50 was 100 to 1000 nM.

Staying with this assay, now noted: read-out: STAT3 HiBiT A549 degradation 24 h: Average external-Abs DC50; A549, 24 h.
For the compound `CN1C(=O)CCC(N2Cc3c(C#CCCCCCC(=O)N4CC[C@H]5CC[C@@H](C(=O)N[C@@H](CCC(N)=O)C(=O)NC(c6ccccc6)c6ccccc6)N5C(=O)[C@@H](NC(=O)c5cc6cc(C(=O)P(=O)(O)O)ccc6[nH]5)C4)cccc3C2=O)C1=O` (stereo in doubt) [Compound I-120, diammonium 2-[[(5S,8S,10aR)-8-[[(1S)-3-carbamoyl-1-(diphenylmethylcarbamoyl)propyl]carbamoyl]-3-[8-[2-(1-methyl-2,6-dioxopiperidin-3-yl)-1-oxo-3H-isoindol-4-yl]oct-7-ynoyl]-6-oxo-octahydropyrrolo[1,2-a][1,5]diazocin-5-yl]carbamoyl]-1H-indole-5-carbonylphosphonate], the DC50 is greater than 1000 nM.
